The assay addresses T1, SMARCA2 (Homo sapiens, UniProt P51531).
T1 construct: endogenous in cells
The assay is described as follows: SMARCA2 HiBiT degradation assay (cellular). The class given is cell-based. Conditions: for Emax: A549, Emax = amount of residual protein remaining in the cell following compound treatment; for DC50: SMARCA2 HiBiT cells, luminescence readout, 11-point titration from 10 μM, 6 hours or 16 hours, read-out: HiBit A549 SMARCA2 IP.

These results are taken from patent US20230002367A1, “BIFUNCTIONAL COMPOUNDS” (Hoffmann-La Roche Inc., priority 2019, published 2023).

T1 sequence (P51531 whole entry): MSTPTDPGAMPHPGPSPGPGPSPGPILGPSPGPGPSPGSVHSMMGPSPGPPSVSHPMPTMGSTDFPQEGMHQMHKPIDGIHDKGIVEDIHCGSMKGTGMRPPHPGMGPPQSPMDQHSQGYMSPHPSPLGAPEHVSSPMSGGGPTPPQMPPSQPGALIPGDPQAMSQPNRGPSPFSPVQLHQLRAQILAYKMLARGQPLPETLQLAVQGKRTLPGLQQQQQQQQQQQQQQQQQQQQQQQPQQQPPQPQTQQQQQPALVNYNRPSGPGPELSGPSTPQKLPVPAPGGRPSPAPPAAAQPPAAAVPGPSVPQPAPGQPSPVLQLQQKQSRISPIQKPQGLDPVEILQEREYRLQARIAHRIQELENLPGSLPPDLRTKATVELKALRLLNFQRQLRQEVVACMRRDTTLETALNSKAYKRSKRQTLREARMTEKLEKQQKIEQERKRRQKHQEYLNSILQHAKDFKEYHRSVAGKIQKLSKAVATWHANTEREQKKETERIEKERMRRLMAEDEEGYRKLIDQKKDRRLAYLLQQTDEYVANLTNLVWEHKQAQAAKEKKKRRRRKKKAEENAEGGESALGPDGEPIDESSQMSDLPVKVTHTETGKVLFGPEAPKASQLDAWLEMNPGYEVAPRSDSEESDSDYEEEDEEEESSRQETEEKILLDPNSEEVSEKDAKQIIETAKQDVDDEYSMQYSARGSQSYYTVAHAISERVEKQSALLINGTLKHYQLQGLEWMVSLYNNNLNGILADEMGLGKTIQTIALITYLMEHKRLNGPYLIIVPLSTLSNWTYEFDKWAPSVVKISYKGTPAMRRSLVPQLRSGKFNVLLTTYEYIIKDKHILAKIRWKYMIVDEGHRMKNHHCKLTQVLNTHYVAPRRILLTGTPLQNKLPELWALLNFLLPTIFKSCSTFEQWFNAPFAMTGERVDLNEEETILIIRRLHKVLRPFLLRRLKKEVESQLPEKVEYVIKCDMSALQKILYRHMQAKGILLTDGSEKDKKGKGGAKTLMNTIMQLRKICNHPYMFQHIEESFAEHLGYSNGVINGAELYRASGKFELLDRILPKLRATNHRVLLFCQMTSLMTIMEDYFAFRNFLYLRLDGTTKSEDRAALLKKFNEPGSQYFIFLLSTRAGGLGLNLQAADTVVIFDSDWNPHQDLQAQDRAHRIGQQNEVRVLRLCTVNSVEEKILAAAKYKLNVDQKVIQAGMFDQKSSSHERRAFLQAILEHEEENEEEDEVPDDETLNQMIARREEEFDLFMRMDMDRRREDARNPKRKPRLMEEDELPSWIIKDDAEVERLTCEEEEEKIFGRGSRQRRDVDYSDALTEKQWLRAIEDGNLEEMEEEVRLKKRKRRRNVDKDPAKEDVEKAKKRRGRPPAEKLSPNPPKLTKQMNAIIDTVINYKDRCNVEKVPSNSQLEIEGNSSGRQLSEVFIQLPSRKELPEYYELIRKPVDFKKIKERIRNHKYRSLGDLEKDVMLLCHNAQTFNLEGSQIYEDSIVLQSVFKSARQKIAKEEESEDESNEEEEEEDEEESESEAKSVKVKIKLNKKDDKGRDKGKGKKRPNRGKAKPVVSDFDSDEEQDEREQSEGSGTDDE

For `Cc1ncsc1-c1ccc(CNC(=O)[C@@H]2C[C@@H](O)CN2C(=O)[C@@H](NC(=O)CCCCCCCCC(=O)N2CCN(c3ccc(N4CCCC(Oc5cc(-c6ccccc6N)nnc5N)C4)cc3)CC2)C(C)(C)C)cc1` (stereo partly drawn) [Example 100, (2S,4R)-1-[(2S)-2-[[10-[4-[4-[3-[3-amino-6-(2-aminophenyl)pyridazin-4-yl]oxy-1-piperidyl]phenyl]piperazin-1-yl]-10-oxo-decanoyl]amino]-3,3-dimethyl-butanoyl]-4-hydroxy-N-[[4-(4-methylthiazol-5-yl)phenyl]methyl]pyrrolidine-2-carboxamide], the Emax turned out to be 62% and the DC50 was 998 nM.

Consider `Cc1ncsc1-c1ccc(CNC(=O)[C@@H]2C[C@@H](O)CN2C(=O)[C@@H](NC(=O)CCCCCCCCC(=O)N(C)CCNC(=O)C2CN(c3cc(-c4ccccc4O)nnc3N)CCN2c2ccccc2)C(C)(C)C)cc1` (mixture of isomers) [Example 98, N′-[2-[[4-[3-amino-6-(2-hydroxyphenyl)pyridazin-4-yl]-1-phenyl-piperazine-2-carbonyl]amino]ethyl]-N′-methyl-N-[rac-(1S)-2,2-dimethyl-1-[rac-(2S,4R)-4-hydroxy-2-[[4-(4-methylthiazol-5-yl)phenyl]methylcarbamoyl]pyrrolidine-1-carbonyl]propyl]decanediamide], for which the maximal response (Emax) worked out at 28% and the DC50 is 1650 nM.

Take `Cc1ncsc1-c1ccc([C@H](C)NC(=O)[C@@H]2C[C@@H](O)CN2C(=O)[C@@H](NC(=O)CCCCCC(=O)N2CCOC3(CCN(c4cc(-c5ccccc5O)nnc4N)CC3)C2)C(C)(C)C)cc1` [Example 43, (2S,4R)-1-[(2S)-2-[[7-[9-[3-amino-6-(2-hydroxyphenyl)pyridazin-4-yl]-1-oxa-4,9-diazaspiro[5.5]undecan-4-yl]-7-oxo-heptanoyl]amino]-3,3-dimethyl-butanoyl]-4-hydroxy-N-[(1S)-1-[4-(4-methylthiazol-5-yl)phenyl]ethyl]pyrrolidine-2-carboxamide]: the maximal effect (Emax) is 23% and the DC50 came out at 749 nM.

On to `Cc1ncsc1-c1ccc([C@H](C)NC(=O)[C@@H]2C[C@@H](O)CN2C(=O)[C@@H](NC(=O)CCOCCOCCC(=O)N(C)CC(COc2cc(-c3ccccc3O)nnc2N)c2ccccc2)C(C)(C)C)cc1` (mixture of isomers) [Example 24, rac-(2S,4R)-4-hydroxy-1-[rac-(2S)-2-[3-[2-[3-[[3-[3-amino-6-(2-hydroxyphenyl)pyridazin-4-yl]oxy-2-phenyl-propyl]-methyl-amino]-3-oxo-propoxy]ethoxy]propanoylamino]-3,3-dimethyl-butanoyl]-N-[rac-(1S)-1-[4-(4-methylthiazol-5-yl)phenyl]ethyl]pyrrolidine-2-carboxamide], for which the Emax is 42% and the DC50 stood at 2850 nM.

In the case of `Cc1ncsc1-c1ccc([C@H](C)NC(=O)[C@@H]2C[C@@H](O)CN2C(=O)[C@@H](NC(=O)CCCCCC(=O)N2CCN(CCOc3ccc(N4CCCC(Oc5cc(-c6ccccc6O)nnc5N)C4)cc3)CC2)C(C)(C)C)cc1` (mixture of isomers) [Example 77, rac-(2S,4R)-4-hydroxy-1-[rac-(2S)-2-[[7-[4-[2-[4-[3-[3-amino-6-(2-hydroxyphenyl)pyridazin-4-yl]oxy-1-piperidyl]phenoxy]ethyl]piperazin-1-yl]-7-oxo-heptanoyl]amino]-3,3-dimethyl-butanoyl]-N-[rac-(1S)-1-[4-(4-methylthiazol-5-yl)phenyl]ethyl]pyrrolidine-2-carboxamide], the Emax turned out to be 24% and the DC50 amounted to 244 nM.

As to `Cc1ncsc1-c1ccc([C@H](C)NC(=O)[C@@H]2C[C@@H](O)CN2C(=O)[C@@H](NC(=O)CCCCCCCCCCC(=O)N(C)CCCN(C)c2ccc(CCOc3cc(-c4ccccc4O)nnc3N)cc2)C(C)(C)C)cc1` (racemic) [Example 27, N′-[3-[4-[2-[3-amino-6-(2-hydroxyphenyl)pyridazin-4-yl]oxyethyl]-N-methyl-anilino]propyl]-N′-methyl-N-[rac-(1S)-2,2-dimethyl-1-[rac-(2S,4R)-4-hydroxy-2-[[rac-(1S)-1-[4-(4-methylthiazol-5-yl)phenyl]ethyl]carbamoyl]pyrrolidine-1-carbonyl]propyl]dodecanediamide], the Emax was 33% and the DC50 was determined as 330 nM.

`Cc1ncsc1-c1ccc([C@H](C)NC(=O)[C@@H]2C[C@@H](O)CN2C(=O)[C@@H](NC(=O)CCCCCC(=O)N2CCN(C(=O)c3ccc(OC4CN(c5cc(-c6ccccc6O)nnc5N)C4)cc3)CC2)C(C)(C)C)cc1` [Example 103, (2S,4R)-1-[(2S)-2-[[7-[4-[4-[1-[3-amino-6-(2-hydroxyphenyl)pyridazin-4-yl]azetidin-3-yl]oxybenzoyl]piperazin-1-yl]-7-oxo-heptanoyl]amino]-3,3-dimethyl-butanoyl]-4-hydroxy-N-[(1S)-1-[4-(4-methylthiazol-5-yl)phenyl]ethyl]pyrrolidine-2-carboxamide]: the maximum response (Emax) stood at 60% and the DC50 was found to be 1890 nM.

With `Cc1ncsc1-c1ccc([C@H](C)NC(=O)[C@@H]2C[C@@H](O)CN2C(=O)[C@@H](NC(=O)CCCCCCCCCC(=O)N2CCN(CCOc3cccc(N4C5CCC4CN(c4cc(-c6ccccc6O)nnc4N)C5)c3)CC2)C(C)C)cc1` [Example 56, (2S,4R)-1-[(2S)-2-[[11-[4-[2-[3-[3-[3-amino-6-(2-hydroxyphenyl)pyridazin-4-yl]-3,8-diazabicyclo[3.2.1]octan-8-yl]phenoxy]ethyl]piperazin-1-yl]-11-oxo-undecanoyl]amino]-3-methyl-butanoyl]-4-hydroxy-N-[(1S)-1-[4-(4-methylthiazol-5-yl)phenyl]ethyl]pyrrolidine-2-carboxamide], the maximal response (Emax) stood at 20% and the DC50 stood at 91 nM.

`Cc1ncsc1-c1ccc(CNC(=O)[C@@H]2C[C@H](O)CN2C(=O)[C@@H](NC(=O)CCCCCCCC(=O)N2CCC(Cc3cccc(N4C5CCC4CN(c4cc(-c6ccccc6O)nnc4N)C5)c3)CC2)C(C)(C)C)cc1` [Example 13, (2S,4S)-1-[(2S)-2-[[9-[4-[[3-[3-[3-amino-6-(2-hydroxyphenyl)pyridazin-4-yl]-3,8-diazabicyclo[3.2.1]octan-8-yl]phenyl]methyl]-1-piperidyl]-9-oxo-nonanoyl]amino]-3,3-dimethyl-butanoyl]-4-hydroxy-N-[[4-(4-methylthiazol-5-yl)phenyl]methyl]pyrrolidine-2-carboxamide]: the Emax stood at 28% and the DC50 is 954 nM.

Regarding `Cc1ncsc1-c1ccc(CNC(=O)[C@@H]2C[C@@H](O)CN2C(=O)[C@@H](NC(=O)CCCCCCCCC(=O)NC(COc2cc(-c3ccccc3O)nnc2N)c2ccccc2)C(C)(C)C)cc1` (mixture of isomers) [Example 63, N-[2-[3-amino-6-(2-hydroxyphenyl)pyridazin-4-yl]oxy-1-phenyl-ethyl]-N′-[rac-(1S)-2,2-dimethyl-1-[rac-(2S,4R)-4-hydroxy-2-[[4-(4-methylthiazol-5-yl)phenyl]methylcarbamoyl]pyrrolidine-1-carbonyl]propyl]decanediamide], the Emax is 48% and the DC50 was 798 nM.

In the case of `Cc1ncsc1-c1ccc(CNC(=O)[C@@H]2C[C@@H](O)CN2C(=O)[C@@H](NC(=O)CCCCCCCCCCC(=O)N2CCN(Cc3cccc(C#Cc4cc(-c5ccccc5O)nnc4N)c3)CC2)C(C)(C)C)cc1` [Example 54, (2S,4R)-1-[(2S)-2-[[12-[4-[[3-[2-[3-amino-6-(2-hydroxyphenyl)pyridazin-4-yl]ethynyl]phenyl]methyl]piperazin-1-yl]-12-oxo-dodecanoyl]amino]-3,3-dimethyl-butanoyl]-4-hydroxy-N-[[4-(4-methylthiazol-5-yl)phenyl]methyl]pyrrolidine-2-carboxamide], the Emax turned out to be 35% and the DC50 is 503 nM.

In the case of `Cc1ncsc1-c1ccc(CNC(=O)[C@@H]2C[C@H](O)CN2C(=O)[C@@H](NC(=O)CCCCCC(=O)N2CCC(Cc3cccc(N4C5CCC4CN(c4cc(-c6ccccc6O)nnc4N)C5)c3)CC2)C(C)(C)C)cc1` [Example 14, (2S,4S)-1-[(2S)-2-[[7-[4-[[3-[3-[3-amino-6-(2-hydroxyphenyl)pyridazin-4-yl]-3,8-diazabicyclo[3.2.1]octan-8-yl]phenyl]methyl]-1-piperidyl]-7-oxo-heptanoyl]amino]-3,3-dimethyl-butanoyl]-4-hydroxy-N-[[4-(4-methylthiazol-5-yl)phenyl]methyl]pyrrolidine-2-carboxamide], the Emax worked out at 38% and the DC50 was 995 nM.

On to `Cc1ncsc1-c1ccc(CNC(=O)[C@@H]2C[C@@H](O)CN2C(=O)[C@@H](NC(=O)CCCCCCCC(=O)N2CCN(Cc3cccc(N4C5CCC4CN(c4cc(-c6ccccc6O)nnc4N)C5)c3)CC2)C(C)(C)C)cc1` [Example 3, (2S,4R)-1-[(2S)-2-[[9-[4-[[3-[3-[3-amino-6-(2-hydroxyphenyl)pyridazin-4-yl]-3,8-diazabicyclo[3.2.1]octan-8-yl]phenyl]methyl]piperazin-1-yl]-9-oxo-nonanoyl]amino]-3,3-dimethyl-butanoyl]-4-hydroxy-N-[[4-(4-methylthiazol-5-yl)phenyl]methyl]pyrrolidine-2-carboxamide], for which the Emax is 51% and the DC50 is 479 nM.

As for `Cc1ncsc1-c1ccc([C@H](C)NC(=O)[C@@H]2C[C@@H](O)CN2C(=O)[C@@H](NC(=O)CCCCCCCCCCCCC(=O)N2CCN(CCOc3ccc(N4CCCC(Oc5cc(-c6ccccc6O)nnc5N)C4)cc3)CC2)C(C)(C)C)cc1` (mixture of isomers) [Example 80, rac-(2S,4R)-4-hydroxy-1-[rac-(2S)-2-[[14-[4-[2-[4-[3-[3-amino-6-(2-hydroxyphenyl)pyridazin-4-yl]oxy-1-piperidyl]phenoxy]ethyl]piperazin-1-yl]-14-oxo-tetradecanoyl]amino]-3,3-dimethyl-butanoyl]-N-[rac-(1S)-1-[4-(4-methylthiazol-5-yl)phenyl]ethyl]pyrrolidine-2-carboxamide], the Emax was 25% and the DC50 stood at 383 nM.
